Experimental data taken from patent publication US20140256663A1, “Amphotericin Analogous Compounds and Pharmaceutical Compositions Containing Them” (CENTRO DE INVESTIGACION Y DE ESTUDIOS AVANZADOS DEL …, priority 2010, published 2014).
≈ marks a conversion by molar mass, not a printed value.

How the values were obtained:
[1] = Unit channel studies in chicken egg lecithin bilayers with ergosterol; settings: AmB 2 μM; 30° C.
Method: Unit channel studies were performed according to procedures described earlier (Cotero, et al., supra, Venegas, et al., supra). Required liposomal suspensions were prepared using lecithin with cholesterol or ergosterol. These suspensions were placed in an ultrasonic bath for 15 minutes to produce unilamellar vesicles. Subsequently, the suspension was placed in a 100 μl eppendorf and a lipid bilayer was formed on the tip of a micro-electrode. The unit channels of amphotericin and of the invented compounds were incorporated to this bilayer. The unit channel current of the various compounds was recorded with an electrometer, and then these records were analyzed by determining the activity of the compounds and the characteristics of the channels formed.
The activity is determined by the presence of the various channels formed by polyenes in the lipid bilayer (Cotero, et al., supra, Venegas, et al., supra). […] This conductance is the effect of all the channels present and was determined by the unit channel technique earlier described.

physchem = settings: DMSO, organic solvent or mixture
Candida albicans (10231) = settings: Preobrazhenskaya M; cited from earlier work

C[C@@H]1[C@H](O)[C@@H](C)/C=C/C=C/C=C/C=C/C=C/C=C/C=C/[C@H](O[C@@H]2O[C@H](C)[C@@H](O)[C@H](N)[C@@H]2O)C[C@@H]2O[C@](O)(C[C@@H](O)C[C@@H](O)[C@H](O)CC[C@@H](O)C[C@@H](O)CC(=O)O[C@H]1C)C[C@H](O)[C@H]2C(=O)O [AmB, Amphotericin B]
Average conductance ergosterol [1]: 600 ± 210 fS | solubility (physchem): ≤ 20 mM | MIC50-Candida albicans (10231) (Candida albicans (10231)): 0.11 µg/mL (≈ 0.119 µM)
